Measurements from ChEMBL document CHEMBL5214890 (Eur J Med Chem, 2021).
Calls of active or inactive are those of the source. The rule behind the calls is not given here. Where a SMILES comes first, the peptide text is derived from it. [ ]: non-standard residue; d: D form. Aib = CC(C)(N)C(=O)O

Legend:
[1] = target: Glucagon receptor (Homo sapiens, UniProt P47871); experiment: Agonist activity at human GCGR expressed in HEK293 cells incubated for 30 mins and assessed as increase in cAMP accumulation measured by HTRF assay; assay type: functional, cell-based
[2] = target: T1, Glucagon-like peptide 1 receptor (Homo sapiens, UniProt P43220); experiment: Agonist activity at human GLP-1R expressed in HEK293 cells incubated for 30 mins and assessed as increase in cAMP accumulation measured by HTRF assay; assay type: functional, cell-based
[3] = target: T1, Glucagon-like peptide 1 receptor; experiment: Agonist activity at human GLP-1R expressed in HEK293 cells incubated for 30 mins and assessed as increase in cAMP accumulation measured by HTRF assay relative to control; assay type: functional, cell-based; parameters: concentration or dose not given beside the values
[4] = Toxicity in male […] assessed as decrease in hepatic lipid content at 40 nmol/kg, sc administered twice daily for 3 weeks; assay type: organism-based; details: in vivo, 504 h
[5] = MRT in male Sprague-Dawley rat at 25 nmol/kg, sc administered as single dose and measured after 24 hrs by LC-MS/MS analysis; assay type: ADME, organism-based; details: in vivo
[6] = AUC (inifinity) in male Sprague-Dawley rat at 25 nmol/kg, sc administered as single dose and measured after 24 hrs by LC-MS/MS analysis; assay type: ADME, organism-based; parameters: dose 25 nmol/kg, time 24 hrs, route sc; details: in vivo
[7] = test system: Mus musculus; experiment: Antidiabetic activity in male […] assessed as increase in plasma FGF21 level at 30 nmol/kg, sc administered twice daily for 3 weeks; assay type: functional, organism-based
[8] = test system: Mus musculus; experiment: Antidiabetic activity in male […] assessed as reduction in fasted glucose level at 30 nmol/kg, sc administered twice daily for 3 weeks; assay type: functional, organism-based
[9] = test system: Mus musculus; experiment: Antidiabetic activity in male […] assessed as increase in serum HDL/LDL ratio at 30 nmol/kg, sc administered twice daily for 3 weeks; assay type: functional, organism-based
[10] = Toxicity in male […] assessed as normalization of hepatic lipid content at 30 nmol/kg, sc administered twice daily for 3 weeks; assay type: organism-based; details: in vivo, 504 h
[11] = test system: Mus musculus; experiment: Antidiabetic activity in male […] assessed as increase in plasma insulin level at 30 nmol/kg, sc administered twice daily for 3 weeks; assay type: functional, organism-based
[12] = test system: Mus musculus; experiment: Antidiabetic activity in male […] assessed as decrease in serum LDL-C level at 30 nmol/kg, sc administered twice daily for 3 weeks; assay type: functional, organism-based
[13] = test system: Mus musculus; experiment: Antidiabetic activity in male […] assessed as reduction in body weight at 30 nmol/kg, sc administered twice daily for 3 weeks; assay type: functional; parameters: scale not given: the % may be the effect or the level left

T1 sequence (P43220 whole entry): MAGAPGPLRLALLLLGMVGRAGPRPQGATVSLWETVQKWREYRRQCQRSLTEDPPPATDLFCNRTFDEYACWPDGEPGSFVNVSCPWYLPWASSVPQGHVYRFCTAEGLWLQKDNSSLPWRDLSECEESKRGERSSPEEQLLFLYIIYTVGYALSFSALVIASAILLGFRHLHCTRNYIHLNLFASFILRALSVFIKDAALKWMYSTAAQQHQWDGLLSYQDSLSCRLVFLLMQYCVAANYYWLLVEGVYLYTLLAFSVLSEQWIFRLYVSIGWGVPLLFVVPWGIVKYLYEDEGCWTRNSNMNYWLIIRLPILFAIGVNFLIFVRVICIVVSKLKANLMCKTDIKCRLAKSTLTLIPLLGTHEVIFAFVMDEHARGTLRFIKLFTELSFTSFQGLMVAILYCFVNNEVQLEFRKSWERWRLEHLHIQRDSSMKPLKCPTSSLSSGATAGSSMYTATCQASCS
Sequence of Glucagon receptor (P47871 whole entry): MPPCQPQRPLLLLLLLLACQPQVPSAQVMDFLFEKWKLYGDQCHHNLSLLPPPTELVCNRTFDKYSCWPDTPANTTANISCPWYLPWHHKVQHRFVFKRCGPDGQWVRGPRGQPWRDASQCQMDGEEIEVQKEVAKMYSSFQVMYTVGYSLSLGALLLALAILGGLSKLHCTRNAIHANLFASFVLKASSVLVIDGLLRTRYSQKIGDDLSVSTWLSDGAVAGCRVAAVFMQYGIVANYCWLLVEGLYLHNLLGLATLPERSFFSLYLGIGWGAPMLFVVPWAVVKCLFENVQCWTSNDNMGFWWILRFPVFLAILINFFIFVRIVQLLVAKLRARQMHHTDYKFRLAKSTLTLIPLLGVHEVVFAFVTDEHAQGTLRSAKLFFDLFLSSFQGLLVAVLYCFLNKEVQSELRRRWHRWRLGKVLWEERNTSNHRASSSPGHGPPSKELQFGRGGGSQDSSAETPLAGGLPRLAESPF

| Compound | EC50 [1] [nM] | EC50 [2] [nM] | Activity ([3]; filed as agonist) [%] | Activity [3] [%] | other results |
| --- | --- | --- | --- | --- | --- |
| CC[C@H](C)[C@H](NC(=O)[C@H](CC(C)C)NC(=O)[C@H](Cc1c[nH]c2ccccc12)NC(=O)[C@H](CCC(=O)O)NC(=O)[C@@H](NC(=O)[C@H](Cc1ccccc1)NC(=O)[C@H](CCC(=O)O)NC(=O)[C@H](CCCCN)NC(=O)[C@H](C)NC(=O)[C@H](C)NC(=O)[C@H](CCC(=O)O)NC(=O)[C@H](CCC(=O)O)NC(=O)[C@H](CCC(=O)O)NC(=O)[C@H](CC(C)C)NC(=O)[C@H](Cc1ccc(O)cc1)NC(=O)[C@H](CCC(=O)O)NC(=O)[C@@H](NC(=O)[C@@H](NC(=O)[C@H](CC(=O)O)NC(=O)[C@H](CC(N)=O)NC(=O)[C@@H](NC(=O)[C@H](Cc1ccc(O)cc1)NC(=O)[C@@H](NC(=O)CNC(=O)[C@H](CCC(=O)O)NC(=O)C(C)(C)NC(=O)[C@@H](N)Cc1c[nH]cn1)[C@@H](C)O)[C@@H](C)O)C(C)C)[C@@H](C)O)[C@@H](C)CC)C(=O)N[C@@H](CCCCN)C(=O)NCC(=O)N[C@@H](CCCCN)C(N)=O (H-H[Aib]EGTYTNDVTEYLEEEAAKEFIEWLIKGK-NH2) | > 1000 | 0.041 | 100 | – | – |
| H-HSQGTYTNDVSKYLDSRRAQQFIEWLMNTKRNRNNIA-NH2 | 0.42 | 0.57 | – | 7.2 | – |
| H-HSQGTYTNDVSKYLDSRRAQDFIEWLIKG-NH2 | 1.9 | 0.56 | – | 7.3 | – |
| H-HSQGTYTNDVSKYLDSRRAQDFIEWLKNGGPSSGAPPPS-NH2 | 0.15 | 0.053 | 77.4 | – | – |
| CCCCCCCCCCCCCCCC(=O)N[C@@H](CCC(=O)NCCCC[C@H](NC(=O)[C@H](C)NC(=O)[C@H](C)NC(=O)[C@H](CCC(N)=O)NC(=O)CNC(=O)[C@H](CCC(=O)O)NC(=O)[C@H](CC(C)C)NC(=O)[C@H](Cc1ccc(O)cc1)NC(=O)[C@H](CO)NC(=O)[C@H](CO)NC(=O)[C@@H](NC(=O)[C@H](CC(=O)O)NC(=O)[C@H](CO)NC(=O)[C@@H](NC(=O)[C@H](Cc1ccccc1)NC(=O)[C@@H](NC(=O)CNC(=O)[C@H](CCC(=O)O)NC(=O)[C@H](C)NC(=O)[C@@H](N)Cc1cnc[nH]1)[C@@H](C)O)[C@@H](C)O)C(C)C)C(=O)N[C@@H](CCC(=O)O)C(=O)N[C@@H](Cc1ccccc1)C(=O)N[C@H](C(=O)N[C@@H](C)C(=O)N[C@@H](Cc1c[nH]c2ccccc12)C(=O)N[C@@H](CC(C)C)C(=O)N[C@H](C(=O)N[C@@H](CCCNC(=N)N)C(=O)NCC(=O)N[C@@H](CCCNC(=N)N)C(=O)NCC(=O)O)C(C)C)[C@@H](C)CC)C(=O)O | – | – | – | – | Activity [4]: Toxic; MRT [5]: 6.6 h; AUC at 24 h [6]: 3.41 µg·h/mL |
| CCCCCCCCCCCCCCCC(=O)N[C@@H](CCC(=O)NCCCC[C@H](NC(=O)[C@H](CO)NC(=O)[C@@H]1CCCN1C(=O)[C@@H]1CCCN1C(=O)[C@@H]1CCCN1C(=O)[C@H](C)NC(=O)CNC(=O)[C@H](CO)NC(=O)[C@H](CO)NC(=O)[C@@H]1CCCN1C(=O)CNC(=O)CNC(=O)[C@H](CC(N)=O)NC(=O)[C@H](CCCCN)NC(=O)[C@H](CC(C)C)NC(=O)[C@H](Cc1c[nH]c2ccccc12)NC(=O)[C@H](CCC(=O)O)NC(=O)[C@@H](NC(=O)[C@H](Cc1ccccc1)NC(=O)[C@H](CC(=O)O)NC(=O)[C@H](CCC(N)=O)NC(=O)[C@H](C)NC(=O)[C@H](CCCNC(=N)N)NC(=O)[C@H](CCCNC(=N)N)NC(=O)[C@H](CO)NC(=O)[C@H](CC(=O)O)NC(=O)[C@H](CC(C)C)NC(=O)[C@H](Cc1ccc(O)cc1)NC(=O)[C@H](CCCCN)NC(=O)[C@H](CO)NC(=O)[C@@H](NC(=O)[C@H](CC(=O)O)NC(=O)[C@H](CC(N)=O)NC(=O)[C@@H](NC(=O)[C@H](Cc1ccc(O)cc1)NC(=O)[C@@H](NC(=O)CNC(=O)[C@H](CCC(N)=O)NC(=O)[C@@H](CO)NC(=O)[C@@H](N)Cc1c[nH]cn1)[C@@H](C)O)[C@@H](C)O)C(C)C)[C@@H](C)CC)C(N)=O)C(=O)O | 0.28 | 0.086 | 47.7 | – | – |
| CCCCCCCCCCCCCCCC(=O)N[C@@H](CCC(=O)N[C@@H](CCC(=O)NCCCC[C@H](NC(=O)[C@H](CC(=O)O)NC(=O)[C@H](CO)NC(=O)[C@@H](NC(=O)[C@H](Cc1ccccc1)NC(=O)[C@@H](NC(=O)CNC(=O)[C@H](CCC(N)=O)NC(=O)[C@H](CO)NC(=O)[C@@H](N)Cc1cnc[nH]1)[C@@H](C)O)[C@@H](C)O)C(=O)N[C@@H](CO)C(=O)N[C@@H](CCC(=O)O)C(=O)N[C@@H](Cc1ccc(O)cc1)C(=O)N[C@@H](CC(C)C)C(=O)N[C@@H](CC(=O)O)C(=O)N[C@@H](CO)C(=O)N[C@@H](CCC(=O)O)C(=O)N[C@@H](CCCNC(=N)N)C(=O)N[C@@H](C)C(=O)N[C@@H](CCCNC(=N)N)C(=O)N[C@@H](CC(=O)O)C(=O)N[C@@H](Cc1ccccc1)C(=O)N[C@H](C(=O)N[C@@H](C)C(=O)N[C@@H](Cc1c[nH]c2ccccc12)C(=O)N[C@@H](CC(C)C)C(=O)N[C@@H](CCC(=O)O)C(=O)N[C@@H](C)C(=O)NCC(=O)NCC(=O)O)C(C)C)C(=O)O)C(=O)O | – | – | – | – | Activity [7]: Active; Activity [8]: Active; Activity [9]: Active; Activity [10]: Non-Toxic; Activity [11]: Active; Activity [12]: Active; Activity [13]: 26.4% |
| H-HSQGTYTNDVTEYLDSRRAQDFIEWLKNGGPSSGAPPPS-NH2 | 39 | 0.22 | – | 18.6 | – |
| H-HSQGTYTNDVTEYLDSRRAQDFIEWLIKGKPSSGAPPPS-NH2 | 1.3 | 0.45 | – | 9.1 | – |
| H-HSQGTYTNDVSKYLDSRRAQDFIEWLIKGKPSSGAPPPS-NH2 | 0.85 | 0.24 | – | 17.1 | – |
